# Test results taken from patent US4156724A, “N-acylamino-alpha-arylacetamido cephalosporins and antibacterial compositions and methods containing them” (Sumitomo Chemical Company, Limited, priority 1974, dated 1979).
# What was measured:
# Assay type in all cases: cell-based
# [1] = test system: Staphylococcus aureus 209 P; test: Minimum Inhibitory Concentration, Staphylococcus aureus 209 P; details: Staphylococcus aureus 209 P; read-out: Minimum Inhibitory Concentration
# Protocol: (§1) anti-microbial activity tests were carried out on the compounds obtained in the Examples.
# [2] = test system: Staphylococcus aureus FS 289; test: Minimum Inhibitory Concentration, Staphylococcus aureus FS 289; details: FS289; Staphylococcus aureus FS 289, strain resistant to penicillin; read-out: Minimum Inhibitory Concentration
# Protocol: as §1
# *Staphylococcus aureus FS 289: strain resistant to penicillin
# [3] = test system: Escherichia coli NIHJ; test: Minimum Inhibitory Concentration, Escherichia coli NIHJ; details: Escherichia coli NIHJ; read-out: Minimum Inhibitory Concentration
# Protocol: as §1
# [4] = test system: Klebsiella pneumoniae 602; test: Minimum Inhibitory Concentration, Klebsiella pneumoniae 602; details: Klebsiella pneumoniae, 602, Klebsiella pneumoniae 602; read-out: Minimum Inhibitory Concentration
# Protocol: as §1
# [5] = test system: Proteus vulgaris HX 19; test: Minimum Inhibitory Concentration, Proteus vulgaris HX 19; details: HX19; Proteus vulgaris HX 19; read-out: Minimum Inhibitory Concentration
# Protocol: as §1
# [6] = test system: Pseudomonas aeruginosa 104; test: Minimum Inhibitory Concentration, Pseudomonas aeruginosa 104; details: Pseudomonas aeruginosa 104; read-out: Minimum Inhibitory Concentration
# Protocol: as §1
# [7] = test system: Serratia No. 72; test: Minimum Inhibitory Concentration, Serratia No. 72
# Protocol: as §1
# [8] = test system: Enterobacter aerogeneus No. 75; test: Minimum Inhibitory Concentration, Enterobacter aerogeneus No. 75; details: Enterobacter aerogeneus No. 75; read-out: Minimum Inhibitory Concentration
# Protocol: as §1
MIC [1],MIC [2],MIC [3],MIC [4],MIC [5],MIC [6],MIC [7],MIC [8],SMILES
0.39 µg/mL,6.25 µg/mL,6.25 µg/mL,6.25 µg/mL,0.2 µg/mL,12.5 µg/mL,50 µg/mL,12.5 µg/mL,O=C(O)C1=C(CSc2nnc(CO)s2)CSC2C(NC(=O)C(NC(=O)c3cnccc3O)c3ccc(O)cc3)C(=O)N12 (stereo not shown) [Example 176]
0.78 µg/mL,6.25 µg/mL,3.13 µg/mL,1.56 µg/mL,0.2 µg/mL,3.13 µg/mL,12.5 µg/mL,6.25 µg/mL,O=C(O)C1=C(CSc2nnc(CO)s2)CSC2C(NC(=O)C(NC(=O)c3cnc4cccnc4c3O)c3ccc(O)c(O)c3)C(=O)N12 (stereo not shown) [Example 178]
0.39 µg/mL,6.25 µg/mL,6.25 µg/mL,12.5 µg/mL,0.2 µg/mL,6.25 µg/mL,100 µg/mL,12.5 µg/mL,"Cn1nnnc1SCC1=C(C(=O)O)N2C(=O)C(NC(=O)[C@H](NC(=O)c3cnccc3O)c3ccc(O)cc3)C2SC1 (stereo partly drawn) [Example 126, 7-[D-α-(4-Hydroxypyridine-3-carbonamido)-α-p-hydroxyphenylacetamido]-3-(1-methyltetrazol-5-yl)thiomethyl-3-cephem-4-carboxylic acid]"
0.39 µg/mL,6.25 µg/mL,6.25 µg/mL,6.25 µg/mL,0.39 µg/mL,6.25 µg/mL,50 µg/mL,12.5 µg/mL,Cn1nnnc1SCC1=C(C(=O)O)N2C(=O)C(NC(=O)[C@H](NC(=O)c3ccnnc3O)c3ccc(O)cc3)C2SC1 (stereo partly shown) [Example 128]
0.78 µg/mL,6.25 µg/mL,3.13 µg/mL,1.56 µg/mL,0.2 µg/mL,3.13 µg/mL,12.5 µg/mL,3.13 µg/mL,COc1ccc2ncc(C(=O)NC(C(=O)NC3C(=O)N4C(C(=O)O)=C(CSc5nnnn5C)CSC34)c3cccc(O)c3)c(O)c2n1 (stereo not shown) [Example 164]
0.78 µg/mL,6.25 µg/mL,6.25 µg/mL,12.5 µg/mL,0.39 µg/mL,6.25 µg/mL,50 µg/mL,12.5 µg/mL,Cn1nnnc1SCC1=C(C(=O)O)N2C(=O)C(NC(=O)C(NC(=O)c3cnccc3O)c3ccc(O)c(F)c3)C2SC1 (stereo not shown) [Example 187]
0.78 µg/mL,6.25 µg/mL,3.13 µg/mL,3.13 µg/mL,0.2 µg/mL,3.13 µg/mL,12.5 µg/mL,6.25 µg/mL,CNc1nnc(SCC2=C(C(=O)O)N3C(=O)C(NC(=O)C(NC(=O)c4cnc5cccnc5c4O)c4cccc(N)c4)C3SC2)s1 (stereo not shown) [Example 78]
0.78 µg/mL,6.25 µg/mL,3.13 µg/mL,3.13 µg/mL,0.39 µg/mL,6.25 µg/mL,25 µg/mL,6.25 µg/mL,O=C(O)C1=C(CSc2ccc(O)nn2)CSC2C(NC(=O)[C@H](NC(=O)c3cnc4cccnc4c3O)c3ccc(O)c(Cl)c3)C(=O)N12 (stereo partly shown) [Example 149]
0.78 µg/mL,6.25 µg/mL,12.5 µg/mL,6.25 µg/mL,0.39 µg/mL,12.5 µg/mL,50 µg/mL,12.5 µg/mL,Nc1cccc(C(NC(=O)c2ccnnc2O)C(=O)NC2C(=O)N3C(C(=O)O)=C(CSc4nnc(CO)s4)CSC23)c1 (stereo not shown) [Example 86]
0.78 µg/mL,6.25 µg/mL,1.56 µg/mL,1.56 µg/mL,0.39 µg/mL,6.25 µg/mL,12.5 µg/mL,6.25 µg/mL,CN(C)c1ccc2ncc(C(=O)N[C@@H](C(=O)NC3C(=O)N4C(C(=O)O)=C(CSc5n[nH]c(=O)s5)CSC34)c3ccc(O)c(F)c3)c(O)c2n1 (stereo partly shown) [Example 151]
0.78 µg/mL,12.5 µg/mL,3.13 µg/mL,3.13 µg/mL,0.39 µg/mL,3.13 µg/mL,12.5 µg/mL,6.25 µg/mL,Cn1nnnc1SCC1=C(C(=O)O)N2C(=O)C(NC(=O)C(NC(=O)c3cnc4c(O)ccnc4c3O)c3ccc(O)cc3)C2SC1 (stereo not shown) [Example 175]
0.39 µg/mL,6.25 µg/mL,12.5 µg/mL,12.5 µg/mL,0.2 µg/mL,6.25 µg/mL,100 µg/mL,25 µg/mL,CC(=O)OCC1=C(C(=O)O)N2C(=O)C(NC(=O)[C@H](NC(=O)c3cnccc3O)c3ccc(O)c(Cl)c3)C2SC1 (stereo partly shown) [Example 117]
0.78 µg/mL,12.5 µg/mL,3.13 µg/mL,6.25 µg/mL,0.39 µg/mL,3.13 µg/mL,12.5 µg/mL,6.25 µg/mL,Cn1nnnc1SCC1=C(C(=O)O)N2C(=O)C(NC(=O)[C@H](NC(=O)c3cnc4cncnc4c3O)c3ccc(O)cc3)C2SC1 (stereo partly shown) [Example 154]
1.56 µg/mL,12.5 µg/mL,12.5 µg/mL,6.25 µg/mL,0.78 µg/mL,12.5 µg/mL,50 µg/mL,25 µg/mL,Cc1ccc2c(O)c(C(=O)NC(C(=O)NC3C(=O)N4C(C(=O)O)=C(CSc5nnc(C)s5)CSC34)c3cccc(O)c3)cnc2n1 (stereo not shown) [Example 168]

# Continued, molecule first:
SMILES,MIC [1],MIC [2],MIC [3],MIC [4],MIC [5],MIC [6],MIC [7],MIC [8]
COc1ccc2ncc(C(=O)N[C@@H](C(=O)N[C@@H]3C(=O)N4C(C(=O)O)=C(COC(C)=O)CS[C@H]34)c3cccc(NC(N)=O)c3)c(O)c2n1 [Example 33],0.78 µg/mL,6.78 µg/mL,3.13 µg/mL,3.13 µg/mL,0.78 µg/mL,6.25 µg/mL,50 µg/mL,12.5 µg/mL
COc1cnc2c(O)c(C(=O)N[C@@H](C(=O)N[C@@H]3C(=O)N4C(C(=O)O)=C(COC(C)=O)CS[C@H]34)c3cccc(NC(N)=O)c3)cnc2n1 [Example 31],0.78 µg/mL,6.25 µg/mL,3.13 µg/mL,3.13 µg/mL,0.39 µg/mL,6.25 µg/mL,50 µg/mL,25 µg/mL
Nc1cccc(C(NC(=O)c2ccnnc2O)C(=O)NC2C(=O)N3C(C(=O)O)=C(CSc4nncs4)CSC23)c1 (stereo not shown) [Example 59],0.39 µg/mL,6.25 µg/mL,6.25 µg/mL,6.25 µg/mL,0.1 µg/mL,6.25 µg/mL,50 µg/mL,12.5 µg/mL
CC(=O)OCC1=C(C(=O)O)N2C(=O)[C@@H](NC(=O)[C@H](NC(=O)c3cnc4nc(C)c(C)nc4c3O)c3ccc(NC(N)=O)cc3)[C@H]2SC1 [Example 35],1.56 µg/mL,6.25 µg/mL,6.25 µg/mL,3.13 µg/mL,0.39 µg/mL,6.25 µg/mL,50 µg/mL,25 µg/mL
NC(=O)Nc1ccc([C@@H](NC(=O)c2cnc3cccnc3c2O)C(=O)N[C@@H]2C(=O)N3C(C(=O)O)=C(CSc4nnc(S)s4)CS[C@H]23)cc1 [Example 24],1.56 µg/mL,6.25 µg/mL,3.13 µg/mL,1.56 µg/mL,0.39 µg/mL,3.13 µg/mL,12.5 µg/mL,3.13 µg/mL
NC(=O)Nc1cccc(C(NC(=O)c2cnccc2O)C(=O)NC2C(=O)N3C(C(=O)O)=C(CSc4nnc(CO)s4)CSC23)c1 (stereo not shown) [Example 45],0.39 µg/mL,6.25 µg/mL,12.5 µg/mL,3.13 µg/mL,0.39 µg/mL,12.5 µg/mL,50 µg/mL,12.5 µg/mL
CC(=O)OCC1=C(C(=O)O)N2C(=O)C(NC(=O)C(NC(=O)c3cnc4cccnc4c3O)c3cccc(N)c3)C2SC1 (stereo not shown) [Example 53],1.56 µg/mL,6.25 µg/mL,3.13 µg/mL,1.56 µg/mL,0.39 µg/mL,6.25 µg/mL,50 µg/mL,6.25 µg/mL
"Cn1nnnc1SCC1=C(C(=O)O)N2C(=O)[C@@H](NC(=O)[C@H](NC(=O)c3cnccc3O)c3ccc(NC(N)=O)cc3)[C@H]2SC1 [Example 13, 7-[D-α-(4-Hydroxypyridine-3-carboxyamido)-α-(p-ureidophenyl)acetamido]-3-(1-methyltetrazol-5-yl)-thiomethyl-3-cephem-4-carboxylic Acid]",0.39 µg/mL,6.25 µg/mL,6.25 µg/mL,3.13 µg/mL,0.2 µg/mL,6.25 µg/mL,50 µg/mL,12.5 µg/mL
NC(=O)Nc1ccc([C@@H](NC(=O)c2ccnnc2O)C(=O)N[C@@H]2C(=O)N3C(C(=O)O)=C(CSc4cnn[nH]4)CS[C@H]23)cc1 [Example 18],0.39 µg/mL,6.25 µg/mL,6.25 µg/mL,6.25 µg/mL,0.2 µg/mL,6.25 µg/mL,50 µg/mL,12.5 µg/mL
CC(=O)OCC1=C(C(=O)O)N2C(=O)[C@@H](NC(=O)[C@H](NC(=O)c3cncnc3O)c3ccc(NC(N)=O)cc3)[C@H]2SC1 [Example 5],0.39 µg/mL,6.25 µg/mL,12.5 µg/mL,12.5 µg/mL,0.39 µg/mL,12.5 µg/mL,200 µg/mL,50 µg/mL
Cn1nnnc1SCC1=C(C(=O)O)N2C(=O)C(NC(=O)C(NC(=O)c3cnc4cccnc4c3O)c3ccc(N)cc3)C2SC1 (stereo not shown) [Example 71],1.56 µg/mL,6.25 µg/mL,1.56 µg/mL,3.13 µg/mL,0.1 µg/mL,3.13 µg/mL,12.5 µg/mL,3.13 µg/mL
NC(=O)Nc1ccc([C@@H](NC(=O)c2cncnc2O)C(=O)N[C@@H]2C(=O)N3C(C(=O)O)=C(CSc4nncs4)CS[C@H]23)cc1 [Example 19],0.39 µg/mL,6.25 µg/mL,12.5 µg/mL,6.25 µg/mL,0.2 µg/mL,12.5 µg/mL,50 µg/mL,25 µg/mL
